Laboratory results: US9796674B2, “Benzyl urea derivatives for activating TGF-beta signaling” (THE BOARD OF TRUSTEES OF THE LELAND STANFORD JUNIOR …, priority 2013, dated 2017)

How the values were obtained:
TGF-β signaling = test: Bioluminescence in SBE-luc reporter mice; type: in vivo, mouse; conditions: brain/CNS bioluminescence
Procedure: The most promising compounds out of these screens were tested for their neuroprotective potential in B103 rat neuroblastoma cells and primary mouse neurons derived from E16 forebrains. Compounds were also tested for their capacity to reduce varicosities and tortuosity in primary mouse neurons. Accordingly, novel neuroprotectant small molecules have been identified that are as potent or better than TGF-β. Importantly, they fulfilled the critical neuroprotective properties in neuronal cell lines and primary hippocampal mouse neurons. • Compounds based on the 11H core: The present compositions and methods include salts of the active compounds and formulations, in particular pharmaceutically acceptable compositions for administration to an animal or human subject and containing active compounds. 129 analogs or derivatives of 11H were screened by a cell-based assay for their ability to increase TGF-β activity, i.e. to act as a TGF agonist. In particular, one compound (a) designated as SRI-011381 (381) was identified as especially advantageous, although active derivatives thereof are contemplated and have been identified. • Effects of TGF-β analogs in vitro: Some of the small-molecule TGF-β agonist compounds were tested for neuroprotection activity and toxicity in vitro (cell culture). In addition, the mechanism of action of the agonists was explored using cells with different genetic backgrounds with respect to protein of the […] signaling pathway. • Animal studies: Transgenic mice harboring the SBE-luc reporter gene were generated and used to test the derivatives of compound 11H in vivo. These “reporter mice” mice express SBE-luc (i.e., “the transgene”) in all cells of the body. Intraperitoneal injection of luciferin into SBE-luc-expressing mice produces bioluminescence generated by luciferase and photons penetrating the skull can be imaged using sensitive camera systems.
SBE-luciferase transgenic mice: Two-month old SBE-luciferase transgenic mice receive different concentrations of a test compound either s.q., ip., or orally by gavage. […] Following administration of the test or control compounds, mice are injected with luciferin ip. At, for example, 2, 8, and 16 hours following injection of luciferin, the mice are imaged to detect bioluminescence as described above. Brains may be harvested 16 hours following test compound injection, and may be divided sagittally. For example, one hemi-brain can be homogenized in luciferase assay buffer for measurement of reporter gene activation, while the other hemi-brain can be frozen at −70° C. for future study, including sectioning into individual brain regions

hippocampal neurons = test: Aβ-induced neuritic dystrophy in primary hippocampal neurons; type: cell-based, mouse; conditions: for average numbers of dystrophic neurites per neuron: 21-22 DIV, 5 μM Aβ, 48 h
Procedure: Primary hippocampal neurons isolated from E16 CF1 embryos were aged for 6-7 days or 21-22 days, then challenged with 5 μM oligomeric Aβ in the presence or absence of compounds, and assayed for neurotoxicity (cell survival as above) or neuritic dystrophy, respectively. For quantification of neuritic dystrophy, fixed cells were immune-stained with a MAP-2 monoclonal antibody to label dendrites.
Primary hippocampal neurons were isolated from E16 CF1 embryos. Twenty-four-well culture plates were coated with 10 μg/ml poly-L-lysine. Cells were seeded overnight at a density of 30,000 cells/well in DMEM/F-12 medium supplemented with 10% FBS and penicillin/streptomycin, and subsequently maintained in Neurobasal medium containing 2% B27 supplement. Cells were aged for 6-7 days or 21-22 days, then challenged with 5 μM Aβ in the presence or absence of compounds, and assayed for neurotoxicity or neuritic dystrophy, respectively. Cells were treated for 72 h for neurotoxicity assay and 48 h for neuritic dystrophy assay. At the end of treatment, an equal volume of 4% PFA was added, plates incubated at room temperature for 15 min and then washed three times with DPBS. Cells were kept in the last wash of DPBS at 4° C. until being counted or stained.
For quantification of neuritic dystrophy, fixed cells were immunostained with a MAP-2 monoclonal antibody (Sigma-Aldrich). […] MAP2 positive dendrites were observed under an inverted fluorescence microscope (Olympus). […] To quantify neurite curvature, an established method was modified for assessment of neurite curvature. Neurite tracks were digitized and approximated by a series of connected line segments using ImageJ (NIH). The angle of each segment was determined using a Sigmaplot macro, and the results were averaged to give the ‘mean differential curvature’. This parameter reflects the degree of neurite curvature with an increasing value indicating increased curvature. Neurite counting and quantification were performed in randomly selected fields (5 fields/well). All quantitative assessments were done by investigators blinded with respect to treatment conditions.

B103 neuroblastoma cells = test: B103 live/dead cell assay with Aβ; type: cell-based, rat; conditions: Aβ 24 h; added 2 h before Aβ
Procedure: SRI-11381 is neuroprotective in vitro: To determine if the TGF-β-inducing capacity of SRI-011381 would translate into biologically beneficial effects, its neuroprotective potential was tested in B103 rat neuroblastoma cells and primary mouse neurons derived from E16 forebrains. B103 neuroblastoma cells were cultured in 24-well plates and exposed to an oligomeric preparation of Aβ together with compounds or recombinant TGF-β.
FIGS. 3A-3H illustrate that SRI-011381 protects cultured neurons from Aβ toxicity. B103 neuroblastoma cells were incubated with Aβ for 24 h. The compounds and TGF-β were added 2 h before Aβ. Following incubations live and dead cells were assessed with calcein-acetoxymethylester (CAM) and SYTOX Orange (Invitrogen), respectively.
B103 neuroblastoma cells: B103 neuroblastoma cells were cultured in Dulbecco's modified Eagle's medium containing 10% fetal calf serum and 1% v/v penicillin/streptomycin (Invitrogen) in a 5% CO2: 95% air atmosphere. 10^4 cells/well were seeded onto 24 well plates and cultured for 24 h before Aβ was added. The compounds and TGF-β were added 2 h before Aβ. Following a 24 h incubation with Aβ, live and dead cells were assessed using calcein-acetoxymethylester (CAM) and SYTOX Orange (Invitrogen), respectively. AM is a membrane-permeable, fluorogenic esterase substrate that is hydrolyzed intracellularly to a green fluorescent product (calcein) in live cells. SYTOX Orange is a high-affinity nucleic acid stain that easily penetrates cells with compromised plasma membranes and yet will not cross the membranes of live cells. After incubation with SYTOX Orange, the nucleic acids of dead cells fluoresce bright orange. […] Five fields were randomly selected from each well and the cell numbers were analyzed by ImageJ (NIH) in a blinded fashion.

C/C(=C\c1ccccc1)CN(CC1CCNCC1)C(=O)NC1=CCC=CC1 [Compound 11H, reference compound]
activation of TGF-β signaling in SBE-luc reporter mice (TGF-β signaling): penetrate into the CNS and activate TGF-β signaling | average numbers of dystrophic neurites per neuron (hippocampal neurons): markedly reduced

TGF-β1: Transforming Growth Factor-β, recombinant cytokine used as comparator
Aβ-induced cell death (B103 neuroblastoma cells): inhibit Aβ-induced cell death | Aβ-induced increase in neurite curvature (mean differential curvature) (hippocampal neurons): prevented | average numbers of dystrophic neurites per neuron (hippocampal neurons): markedly reduced
